These results are taken from US20220118051A1, “SELF-ASSEMBLING VEGF NANOPARTICLES” (Northwestern University, priority 2018, published 2022).

Series [1] relates to SCA1 knock-in mice (SCA1154Q/2Q). Kind of series: Gait analysis on transparent treadmill (Digigait). The format is in vivo, mouse. The conditions noted are these: tested up to 24 cm/s, untreated SCA1 mice barely walk at 5 cm/s. The method, then: (§1) To test for behavioral and pathological improvement mice were treated for a two-week period starting at 24 weeks. Nano-VEGF, mouse rVEGF (R&D systems, Minneapolis, Minn.) or artificial CSF (sham controls) were delivered using the intracerebroventricular route (into the right lateral ventricle with stereotaxic coordinates: A/P −0.5 mm, M/L −1.1 mm, D/V −2.5 mm). using osmotic ALZET pumps; model #1002, Durect) (Cvetanovic et al., 2011; herein incorporated by reference in its entirety). Behavioral assays were performed at 26 weeks; while biochemical and histochemical analysis was performed at 27 weeks (after euthanasia). For electrophysiological experiments, we used 8-10 week-old mice for pump placement (with a similar two-week treatment regimen) since it is difficult to generate good electrophysiological traces from older mice.
Gait Analysis: Mice were placed on a transparent treadmill belt connected to a high-speed digital video camera (Digigait© system; Mouse Specifics, Inc.). The speed of the treadmill was set to the minimum of 5 cm/s up to maximum tolerated speed (maxed out at 24 cm/s). The performance of mice on the treadmill at different speeds was recorded with digital video camera.

The conditions of series [2]: cited from earlier work.
The test system of series [3] is Purkinje cells. Kind of series: Electrophysiological slice recordings, cell-attached, spontaneous firing. In kind it is in vivo, mouse. The conditions noted are these: SCA1 mice treated from 8-10 weeks for two weeks; vs vehicle (aCSF). The procedure: as §1
Mice were anesthetized with isoflurane and killed by decapitation. The brains were removed from the skull and placed in warm (30-33° C.) artificial cerebrospinal fluid (ACSF) containing (in mM): 125 NaCl, 25 NaHCO3, 2.5 KCl, 1.25 NaH2PO4, 0.5 CaCl2), 7 MgCl2, 75 sucrose and 25 glucose, equilibrated with 95% O2 and 5% CO2 (pH 7.4). 300 μm thick para-sagittal cerebellar slices were cut using a vibratome (Leica VT1200) and stored in the same solution at 34° C. for 15 min and then at 20-22° C. until used (<6 hours). […] Cells were recorded in the I-Clamp fast mode. […]

Series [4] deals with cerebellar microvasculature. Kind of series: Collagen IV immunostaining of cerebellar microvessels (AngioTool). The conditions noted are these: SCA1 mice cerebella. The format is in vivo, mouse. The procedure:
as §1
(§2) 27-week-old mice (post treatment and post behavioral analysis) were anesthetized by isoflurane inhalation and were perfused with ice-cold PBS, followed by 4% paraformaldehyde in PBS (Israeli et al., 2016; herein incorporated by reference in its entirety). The brains were post-fixed in 4% paraformaldehyde for 24 hrs, followed by tissue saturation in 30% sucrose for 48-72 hrs. […] After three washes in TBST, signals were detected using according secondary antibodies for 2 hours at RT. […]

Series [5] has as its system ZO-1, Claudin-5 and Occludin. Kind of series: Western blot of tight junction proteins in cerebella. The format is in vivo, mouse. The conditions noted are these: SCA1 mice cerebella, normalized to actin. The procedure:
as §1
(§3) Proteins were extracted from cerebellar tissues using radioimmunoprecipitation assay (RIPA) buffer (50 mM Tris-HCl, pH 8.0, 150 mM NaCl, 1 mM EDTA, 10 mM NaF, 0.5% Sodium deoxycholate, 1% Triton-X 100, 0.1% SDS, protease inhibitors (Sigma)), and resolved on 7.5% SDS-PAGE gel. Densitometric analysis was evaluated using ImageJ 1.46r software (National Institutes of Health, Bethesda, Md., USA). […]

Series [6] relates to SCA1 knock-in mice (SCA1154Q/2Q). Kind of series: Rotating rod assay (accelerating rotarod). In kind it is in vivo, mouse. The conditions noted are these: SCA1 mice at 26 weeks; for rotarod performance: after two-week ICV delivery from 24 weeks, compared to aCSF-treated SCA1 mice. The procedure:
as §1
Rotating Rod Assay: 26-week-old mice (post-treatment) were placed on a rotating rod apparatus (Ugo Basile) that accelerates linearly from 4 to 40 rotations per minute over a 5-minute period. Mice were subjected to four trials per day for four consecutive days, each trial lasting to a maximum of ten minutes, with at least ten minutes of rest between each trial. The average performances for each day were plotted, and statistical differences between the different groups were analyzed using repeated measures two-way ANOVA (followed by Tukey's honest significant difference post-hoc test for multiple comparisons). All statistical analyses here and elsewhere were performed using GraphPad Prism 6 software (GraphPad Software, La Jolla Calif. USA). Data were considered significant for p<0.05. Data are expressed as mean±SEM.
On the technique in general: The rotarod test checks motor coordination on a turning rod.

Series [7] deals with Purkinje cells. Kind of series: Calbindin staining, Purkinje cell dendritic length. The format is in vivo, mouse. The conditions noted are these: SCA1 mice at 27 weeks; vs aCSF. The method, then:
as §1, §2

Another series relates to Ataxin-1. Kind of series: Western blot of Ataxin-1. The format is in vivo, mouse. The conditions noted are these: SCA1 mice, two weeks of treatment. The method, then:
as §1, §3
On the technique in general: A western blot detects proteins with antibodies after separation by electrophoresis.

Another series deals with T1, VEGFR2 (Mus musculus, UniProt P35918).
T1 construct: Cerebellar lysates were prepared in 2× cell lysis buffer; from tissue; host or cells: mouse cerebellum (SCA1 154Q/2Q knock-in and wild-type mice)
T1 sequence (P35918 20-1345): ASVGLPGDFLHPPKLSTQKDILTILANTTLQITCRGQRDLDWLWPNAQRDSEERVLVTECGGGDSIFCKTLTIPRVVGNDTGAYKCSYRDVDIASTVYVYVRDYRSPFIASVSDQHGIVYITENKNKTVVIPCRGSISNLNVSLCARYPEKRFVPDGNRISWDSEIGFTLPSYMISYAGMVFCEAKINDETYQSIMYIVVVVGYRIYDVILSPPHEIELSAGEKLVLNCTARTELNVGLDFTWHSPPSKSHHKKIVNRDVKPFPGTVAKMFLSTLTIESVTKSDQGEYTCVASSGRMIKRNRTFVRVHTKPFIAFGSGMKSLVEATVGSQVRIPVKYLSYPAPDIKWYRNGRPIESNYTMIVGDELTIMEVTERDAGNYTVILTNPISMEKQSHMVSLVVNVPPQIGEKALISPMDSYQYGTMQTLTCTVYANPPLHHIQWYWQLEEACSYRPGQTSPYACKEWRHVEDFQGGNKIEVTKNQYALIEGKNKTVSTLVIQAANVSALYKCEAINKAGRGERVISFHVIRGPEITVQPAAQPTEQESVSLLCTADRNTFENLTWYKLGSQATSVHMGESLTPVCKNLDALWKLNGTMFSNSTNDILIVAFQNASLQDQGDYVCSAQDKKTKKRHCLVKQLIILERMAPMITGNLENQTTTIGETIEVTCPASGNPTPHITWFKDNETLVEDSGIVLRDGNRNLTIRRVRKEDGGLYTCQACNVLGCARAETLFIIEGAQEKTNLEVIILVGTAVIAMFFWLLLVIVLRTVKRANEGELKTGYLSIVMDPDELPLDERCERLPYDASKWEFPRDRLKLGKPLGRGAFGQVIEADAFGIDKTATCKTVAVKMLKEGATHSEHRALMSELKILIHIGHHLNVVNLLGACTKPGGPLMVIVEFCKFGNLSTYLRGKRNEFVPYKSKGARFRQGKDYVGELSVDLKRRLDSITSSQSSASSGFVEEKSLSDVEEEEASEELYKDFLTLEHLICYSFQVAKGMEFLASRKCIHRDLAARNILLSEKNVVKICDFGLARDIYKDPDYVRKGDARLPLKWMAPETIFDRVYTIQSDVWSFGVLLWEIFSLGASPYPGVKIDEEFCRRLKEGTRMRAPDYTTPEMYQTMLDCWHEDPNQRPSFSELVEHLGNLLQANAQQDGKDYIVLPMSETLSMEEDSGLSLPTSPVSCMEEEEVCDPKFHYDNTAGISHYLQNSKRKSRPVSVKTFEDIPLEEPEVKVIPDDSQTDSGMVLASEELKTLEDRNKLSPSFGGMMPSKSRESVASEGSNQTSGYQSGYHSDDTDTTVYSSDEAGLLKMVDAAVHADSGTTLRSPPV
Kind of series: Phospho-VEGFR2 ELISA on cerebellar lysates. The format is in vivo. The method, then:
as §1
Phospho-VEGFR2 ELISA was performed using PathScan® Phospho-VEGFR2 (Ty1175) Sandwich ELISA kit (7335, Cell Signaling), according to manufacturer's instruction. Cerebellar lysates were prepared in 2× cell lysis buffer, and undiluted tissue lysates were incubated in 96-well plates coated with phosphor-VEGFR2 primary antibody overnight at 4° C. Wells were washed several times, and detection antibody was added to the well and incubated for 1 hr at 37C and with HRP-conjugated secondary antibody for 30 min at 37° C. Signals were detected with 3,3′,5,5′-Tetramethylbenzidine (TMB) substrate and sulfuric acid were added to stop the reaction. Absorbance was read at 450 nm within 30 min after stopping the reaction.
(In general: In an ELISA, binding on a coated surface is turned into a signal by an enzyme label.)

For the next series, the system named is Ataxin-1 inclusions. Kind of series: Immunohistochemistry of Ataxin-1 inclusions in hippocampal CA1. In kind it is in vivo, mouse. The conditions noted are these: SCA1 mice, 27 weeks; vs aCSF. The method, then:
as §1
To quantify the percentage of cells with ataxin-1 inclusions in the CA1 regions of the hippocampus, brain sections were stained for ataxin-1 (mouse anti-Ataxin-1 11NQ clone N76/3; NeuroMab, 1:1000) and counterstained with DAPI. The number of cells with ataxin-1 inclusions in each defined region of interest was normalized to the number of cells stained with DAPI only. Statistical analysis was performed using unpaired t test. […]

For series [8] the following is noted: cited from earlier work. This is another data set of the same source.
Where [9] appears, read: SCA1 mice, cerebellar lysates, vs aCSF.

Entries after “also recorded” stand apart in the source; their conditions may differ. C16 = N-terminal C16 alkyl chain

For the molecule “C16-V2A2K3G-KLTWQELYQLKYKGI (C16-VVAAKKKGKLTWQELYQLKYKGI-NH2) [nano-VEGF, VEGF peptide (mimics VEGF residues 17-25) linked at N terminus to K3G, V2A2 β-domain and C16 alkyl chain; self-assembling peptide amphiphile]”, the “treadmill speed at which treated mice could walk and even run” value in series [1] was found to be 17 cm/s. The “bioequivalence relative to rVEGF” value in series [2] (functional studies in mouse hind-limb ischemia model, basis for dose 20.0 μg vs 2.5 μg) is on record as “approximately eight times that of rVEGF”. In addition, in series [2] (ischemic limb model), the time detectable post-injection entry was “up to 4 weeks”. Besides, the “retention of particles in tissue” value in series [2] (mouse hind-limb ischemia model) is “retained in tissue even four weeks after delivery”. The “spontaneous firing of Purkinje cells” value with Purkinje cells [3] was “significantly faster and more regular firing; also recorded: increases firing in Purkinje cells”. The “average vessel length, improvement compared with rVEGF” value in series [4] is given as “greater improvement”. In addition, the “branching index, improvement compared with rVEGF” value in series [4] is given as “greater improvement”. Further, the “levels of capillary proteins (tight junction markers ZO-1, Claudin-4, and Occludin)” value in series [5] was “more effective than rVEGF”. The rotarod performance result in series [6] is recorded as “performed markedly better than control SCA1 mice treated with artificial CSF”; in series [6] (listed as Nano-VEGF), “improved rotarod performance”. Further, the “rotarod improvement, nano-VEGF compared with rVEGF” value in series [6] (nano-VEGF 20.0 μg vs rVEGF 2.5 μg over two weeks ICV) is given as “tended to produce a greater improvement than rVEGF; also recorded: more effective”. Also, in the series on Purkinje cells [7], the “Purkinje cell dendritic length (calbindin staining)” value is reported as “significantly increase dendritic length”. Besides, the Ataxin-1 protein levels entry in the series with Ataxin-1 is on record as “does not alter Ataxin-1 levels”. In addition, the figures for the VEGFR2 phosphorylation level result with VEGFR2 (setting [9]) and with VEGFR2 (wild-type (WT) mice) were “rescued” and “did not upregulate phosphorylation of VEGFR2”, respectively. In the series on Ataxin-1 inclusions, the “percentage of cells with Ataxin-1 inclusions in the CA1 of hippocampi” value is listed as “does not differ from that of aCSF-treated mice”.

B1: rVEGF: mouse recombinant VEGF (R&D systems) (protein)
chain: APTTEGEQKSHEVIKFMDVYQRSYCRPIETLVDIFQEYPDEIEYIFKPSCVPLMRCAGCCNDEALECVPTSESNITMQIMRIKPHQSQHIGEMSFLQHSRCECRPKKDRTKPENHCEPCSERRKHLFVQDPQTCKCSCKNTDSRCKARQLELNERTCRCDKPRR
Turning to B1, the “treadmill speed at which treated mice could walk and even run” value in series [1] was found to be 17 cm/s. The half-life in vivo result in series [8] is recorded as “about 30 minutes”. In series [6], the rotarod performance result is “performed markedly better than control SCA1 mice treated with artificial CSF; also recorded: improved rotarod performance”. Besides, the “Purkinje cell dendritic length (calbindin staining)” value in the series on Purkinje cells [7] is on record as “significantly increase dendritic length”. For the same molecule, the VEGFR2 phosphorylation level result with VEGFR2 (setting [9]) is “rescued”; in the series with VEGFR2 (wild-type (WT) mice), “did not upregulate phosphorylation of VEGFR2”.
